Data taken from patent US8415469B2, “Compounds and methods for kinase modulation, and indications therefor” (Plexxikon Inc., priority 2005, dated 2013).

Columns and labels:
Type in all cases: biochemical
Erk2 = molecular target: T1, Erk2 (Homo sapiens, UniProt P28482); test: AlphaScreen kinase assay, Erk2; conditions: read-out: IC50, activity toward kinase Erk2
T1 construct: P4227.pET15S ERK2/MEK1DD; His6 with thrombin site (N); made in house
From the text: AlphaScreen assay was used to screen additional kinases. The assay is similarly dependent on the phosphorylation of a peptide substrate. In this assay, an antibody that recognizes phosphorylated substrate is bound to an acceptor bead. The peptide substrate is attached to biotin, which binds to a donor head that contains streptavidin. Thus phosphorylated substrate is bound by antibody and streptavidin, bringing the donor and acceptor heads into close proximity when kinase is not inhibited. The donor produces singlet oxygen which results in emission from the acceptor when they are in close proximity. Conversely, when kinase is inhibited, the donor and acceptor beads are not associated and the emission from the acceptor is reduced.
AlphaScreen assays were done using compounds dissolved in DMSO to a concentration of 20 mM. The compounds were diluted accordingly to the desired final concentrations in each sample well, using 1:3 serial dilution for a total of 8 concentration points.

Ret = molecular target: T2, Ret (Homo sapiens, UniProt P07949); test: AlphaScreen kinase assay, Ret; conditions: read-out: IC50, activity toward kinase Ret
T2 construct: P1378.pET-SF BI-PTP RET H661-R1012 HIS; made in house
T2 sequence (P07949 with tags, fused parts or gaps): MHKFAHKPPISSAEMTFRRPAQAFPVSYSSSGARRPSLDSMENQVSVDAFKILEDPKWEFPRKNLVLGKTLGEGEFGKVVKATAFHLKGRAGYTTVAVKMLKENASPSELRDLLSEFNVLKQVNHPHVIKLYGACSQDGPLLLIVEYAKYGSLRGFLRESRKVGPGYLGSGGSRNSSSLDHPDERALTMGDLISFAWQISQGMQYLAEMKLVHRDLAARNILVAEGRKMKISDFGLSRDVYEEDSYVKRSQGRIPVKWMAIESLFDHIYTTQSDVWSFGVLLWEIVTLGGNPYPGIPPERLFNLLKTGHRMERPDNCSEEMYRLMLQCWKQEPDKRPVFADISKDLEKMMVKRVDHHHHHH

Flt1 = molecular target: T3, Flt1 (Homo sapiens, UniProt P17948); test: AlphaScreen kinase assay, Flt1; conditions: read-out: IC50, activity toward kinase Flt1
T3 construct: P1826.pETN6 BI-PTP FLT1 M799-D1165-X WT; His6 (N); made in house; host or cells: E. coli (PTP1B co-expressed)
T3 sequence (P17948 with tags, fused parts or gaps): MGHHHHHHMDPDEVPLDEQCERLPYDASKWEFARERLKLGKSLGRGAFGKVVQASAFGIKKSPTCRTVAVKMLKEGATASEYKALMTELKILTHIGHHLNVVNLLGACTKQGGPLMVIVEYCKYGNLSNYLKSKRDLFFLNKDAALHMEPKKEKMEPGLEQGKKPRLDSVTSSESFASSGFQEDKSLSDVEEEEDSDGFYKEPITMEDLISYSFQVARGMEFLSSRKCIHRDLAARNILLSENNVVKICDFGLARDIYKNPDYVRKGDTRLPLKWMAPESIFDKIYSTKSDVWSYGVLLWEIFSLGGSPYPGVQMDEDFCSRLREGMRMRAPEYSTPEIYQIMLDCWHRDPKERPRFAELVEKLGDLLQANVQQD

Pyk2 = molecular target: T4, Pyk2 (Homo sapiens, UniProt Q14289); test: AlphaScreen kinase assay, Pyk2; conditions: read-out: IC50, activity toward kinase Pyk2
T4 construct: purchased Upstate Biotechnology

Abl = molecular target: T5, Abl (Homo sapiens, UniProt P00519); test: AlphaScreen kinase assay, Abl; conditions: read-out: activity toward kinase Abl, IC50
T5 construct: P1121. pET-SPEC BI-PTP Abl G227-V515-X; His6 (N); made in house; host or cells: E. coli (PTP1B co-expressed)
T5 sequence (P00519 with tags, fused parts or gaps): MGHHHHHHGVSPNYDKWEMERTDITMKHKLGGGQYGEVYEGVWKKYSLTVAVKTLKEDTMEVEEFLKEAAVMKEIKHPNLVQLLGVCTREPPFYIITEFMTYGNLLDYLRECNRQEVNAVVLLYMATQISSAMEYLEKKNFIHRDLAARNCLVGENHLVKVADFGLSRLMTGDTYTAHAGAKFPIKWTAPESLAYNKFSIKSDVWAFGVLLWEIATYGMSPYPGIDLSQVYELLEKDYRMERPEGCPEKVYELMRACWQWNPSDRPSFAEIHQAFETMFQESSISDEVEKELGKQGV
In short: (§1)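 Biotinylated peptide substrate is phosphorylated by kinase; anti-phosphopeptide antibody on acceptor beads and streptavidin donor beads bring emission when substrate is phosphorylated. Inhibition lowers acceptor signal. Compounds from 20 mM DMSO stock tested as 8-point 1:3 serial dilutions.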

B-Raf = molecular target: T6, B-Raf (Homo sapiens, UniProt P15056); test: AlphaScreen kinase assay, B-Raf; conditions: read-out: IC50, activity toward kinase B-Raf
T6 construct: purchased Upstate Biotechnology

Src = molecular target: T7, Src (Homo sapiens, UniProt P12931); test: AlphaScreen kinase assay, Src; conditions: read-out: IC50, activity toward kinase Src
T7 construct: P1144. pET-N6 BI-PTP SRC V86-L536-X; made in house

Kdr = molecular target: T8, Kdr (Homo sapiens, UniProt P35968); test: Z'-Lyte FRET kinase assay (Invitrogen), Kdr; conditions: read-out: IC50, activity toward kinase Kdr
T8 construct: purchased Invitrogen (assay run by Invitrogen)

Jnk3 = molecular target: T9, Jnk3 (Homo sapiens, UniProt P53779); test: AlphaScreen kinase assay, Jnk3; conditions: read-out: IC50, activity toward kinase Jnk3
T9 construct: purchased Upstate Biotechnology

Zap70 = molecular target: T10, Zap70 (Homo sapiens, UniProt P43403); test: AlphaScreen kinase assay, Zap70; conditions: read-out: IC50, activity toward kinase Zap70
T10 construct: P1868.pFastBac1 ZAP70 D327-G606 HIS, WT; His7 (HHHHHHH) (C); made in house
T10 sequence (P43403 with tags, fused parts or gaps): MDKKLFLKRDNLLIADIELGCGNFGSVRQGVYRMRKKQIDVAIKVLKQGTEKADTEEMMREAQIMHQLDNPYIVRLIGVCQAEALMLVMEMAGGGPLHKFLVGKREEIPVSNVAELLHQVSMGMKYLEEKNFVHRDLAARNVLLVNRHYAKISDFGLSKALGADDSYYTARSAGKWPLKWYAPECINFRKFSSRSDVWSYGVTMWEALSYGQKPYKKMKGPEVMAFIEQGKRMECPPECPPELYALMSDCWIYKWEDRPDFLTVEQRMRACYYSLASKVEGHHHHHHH
In short: as §1

Met = molecular target: T11, Met (Homo sapiens, UniProt P08581); test: AlphaScreen kinase assay, Met; conditions: read-out: IC50, activity toward kinase Met
T11 construct: P1818.pETN6 BI-PTP MET G1056-G1364-X WT; His6 (N); made in house; host or cells: E. coli (PTP1B co-expressed)
In short: as §1

Kit = molecular target: T12, Kit (Homo sapiens, UniProt P10721); test: AlphaScreen kinase assay, Kit; conditions: read-out: IC50, activity toward kinase Kit
T12 construct: P1332.N6 BI PTP KIT M552-K948-X COD; His6 (N); made in house; host or cells: E. coli (PTP1B co-expressed)

Flt4 = molecular target: T13, Flt4 (Homo sapiens, UniProt P35916); test: AlphaScreen kinase assay, Flt4; conditions: read-out: IC50, activity toward kinase Flt4
T13 construct: purchased ProQinase GmbH (Freiburg, Germany)
In short: as §1

FGFR1 = molecular target: T14, FGFR1 (Homo sapiens, UniProt P11362, C488A/C584S); test: AlphaScreen kinase assay, FGFR1; conditions: read-out: IC50, activity toward kinase FGFR
T14 construct: P1351.pET N6 BI-PTP FGFR A458-E765-X C488A, C584S; made in house; host or cells: E. coli (PTP1B co-expressed)

B-Raf V600E = molecular target: T15, B-Raf V600E (Homo sapiens, UniProt P15056, V600E); test: AlphaScreen kinase assay, B-Raf V600E; conditions: read-out: IC50, activity toward kinase B-Raf V600E
T15 construct: P4254. pFastBacBD-CDC37 BRAF D437-K722-X, V600E; His6 with pFastBac HT leader (TEV site) (N); made in house; host or cells: Sf9 (baculovirus; chaperone CDC37 co-expressed)

Fak = molecular target: T16, Fak (Homo sapiens, UniProt Q05397); test: AlphaScreen kinase assay, Fak; conditions: read-out: IC50, activity toward kinase Fak
T16 construct: P1358.pFastBacHtb FAK S411-Q686-X; His6 with pFastBacHTb leader (TEV site) (N); made in house; host or cells: Sf9 (baculovirus)

T8 sequence (P35968 20-1356): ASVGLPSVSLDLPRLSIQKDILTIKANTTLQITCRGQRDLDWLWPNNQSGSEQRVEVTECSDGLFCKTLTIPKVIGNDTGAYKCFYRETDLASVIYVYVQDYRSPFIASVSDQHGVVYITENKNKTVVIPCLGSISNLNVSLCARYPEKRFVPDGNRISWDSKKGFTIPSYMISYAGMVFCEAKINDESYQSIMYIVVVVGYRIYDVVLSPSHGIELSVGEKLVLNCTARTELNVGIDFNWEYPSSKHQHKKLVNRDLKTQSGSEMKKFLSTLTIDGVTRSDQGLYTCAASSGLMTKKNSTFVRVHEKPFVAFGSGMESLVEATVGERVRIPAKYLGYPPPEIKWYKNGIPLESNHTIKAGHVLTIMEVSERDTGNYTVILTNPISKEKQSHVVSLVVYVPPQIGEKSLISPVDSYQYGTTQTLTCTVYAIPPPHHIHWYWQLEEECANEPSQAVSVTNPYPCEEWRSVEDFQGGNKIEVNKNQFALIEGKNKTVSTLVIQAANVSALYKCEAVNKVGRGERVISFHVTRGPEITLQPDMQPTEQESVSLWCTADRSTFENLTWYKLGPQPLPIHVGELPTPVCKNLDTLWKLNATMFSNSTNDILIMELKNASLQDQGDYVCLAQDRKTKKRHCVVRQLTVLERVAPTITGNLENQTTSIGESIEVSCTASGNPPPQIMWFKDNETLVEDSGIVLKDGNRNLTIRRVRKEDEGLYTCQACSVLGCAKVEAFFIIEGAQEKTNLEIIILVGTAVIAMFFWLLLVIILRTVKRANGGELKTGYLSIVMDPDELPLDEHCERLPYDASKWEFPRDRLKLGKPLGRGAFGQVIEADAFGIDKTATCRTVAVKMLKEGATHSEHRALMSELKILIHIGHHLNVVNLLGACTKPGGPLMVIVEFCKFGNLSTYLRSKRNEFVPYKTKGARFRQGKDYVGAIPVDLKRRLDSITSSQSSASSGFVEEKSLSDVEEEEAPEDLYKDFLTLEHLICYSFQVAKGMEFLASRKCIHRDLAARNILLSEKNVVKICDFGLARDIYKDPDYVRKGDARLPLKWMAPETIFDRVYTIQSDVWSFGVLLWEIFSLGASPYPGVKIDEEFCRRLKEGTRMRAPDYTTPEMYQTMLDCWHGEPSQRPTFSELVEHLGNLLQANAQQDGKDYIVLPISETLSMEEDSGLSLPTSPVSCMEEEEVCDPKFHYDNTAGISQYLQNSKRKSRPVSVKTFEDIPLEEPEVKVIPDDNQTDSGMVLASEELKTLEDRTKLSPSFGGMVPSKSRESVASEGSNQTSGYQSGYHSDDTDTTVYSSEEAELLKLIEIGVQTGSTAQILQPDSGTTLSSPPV
T14 sequence (P11362 458-765 C488A/C584S): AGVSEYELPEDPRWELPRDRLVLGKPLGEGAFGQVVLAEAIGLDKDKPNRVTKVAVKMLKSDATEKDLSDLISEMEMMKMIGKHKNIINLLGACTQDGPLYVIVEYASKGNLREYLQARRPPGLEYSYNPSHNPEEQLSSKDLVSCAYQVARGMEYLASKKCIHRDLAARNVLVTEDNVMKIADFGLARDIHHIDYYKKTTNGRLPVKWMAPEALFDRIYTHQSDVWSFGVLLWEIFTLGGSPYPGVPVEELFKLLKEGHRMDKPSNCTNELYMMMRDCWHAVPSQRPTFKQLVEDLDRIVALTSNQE
T4 sequence (Q14289 whole entry): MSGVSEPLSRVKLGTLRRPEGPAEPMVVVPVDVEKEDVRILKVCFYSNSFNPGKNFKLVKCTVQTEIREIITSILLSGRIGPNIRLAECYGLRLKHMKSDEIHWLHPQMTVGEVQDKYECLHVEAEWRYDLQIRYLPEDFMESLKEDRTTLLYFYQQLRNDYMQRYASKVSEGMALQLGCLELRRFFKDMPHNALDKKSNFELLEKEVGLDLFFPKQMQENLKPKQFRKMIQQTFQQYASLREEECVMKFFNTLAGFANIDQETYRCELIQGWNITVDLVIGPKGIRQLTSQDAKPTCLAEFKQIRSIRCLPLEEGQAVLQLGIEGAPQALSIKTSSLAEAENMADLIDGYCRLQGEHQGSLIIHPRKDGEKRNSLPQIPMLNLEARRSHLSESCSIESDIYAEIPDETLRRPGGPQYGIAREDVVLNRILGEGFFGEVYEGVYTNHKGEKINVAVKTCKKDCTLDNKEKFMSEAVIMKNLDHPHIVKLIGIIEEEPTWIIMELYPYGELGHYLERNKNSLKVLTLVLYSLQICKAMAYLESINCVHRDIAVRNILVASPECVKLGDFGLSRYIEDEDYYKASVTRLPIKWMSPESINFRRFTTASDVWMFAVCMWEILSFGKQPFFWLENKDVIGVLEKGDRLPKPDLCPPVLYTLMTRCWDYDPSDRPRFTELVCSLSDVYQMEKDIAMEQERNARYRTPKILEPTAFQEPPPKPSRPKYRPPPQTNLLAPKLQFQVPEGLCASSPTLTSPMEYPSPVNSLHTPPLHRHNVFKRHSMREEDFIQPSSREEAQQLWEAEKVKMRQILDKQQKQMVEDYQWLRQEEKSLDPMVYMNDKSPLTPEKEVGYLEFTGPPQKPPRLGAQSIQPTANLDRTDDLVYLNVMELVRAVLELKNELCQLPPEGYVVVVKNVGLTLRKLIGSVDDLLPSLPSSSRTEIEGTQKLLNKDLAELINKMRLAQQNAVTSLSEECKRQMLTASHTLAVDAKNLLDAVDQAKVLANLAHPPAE
T12 sequence (P10721 with tags, fused parts or gaps): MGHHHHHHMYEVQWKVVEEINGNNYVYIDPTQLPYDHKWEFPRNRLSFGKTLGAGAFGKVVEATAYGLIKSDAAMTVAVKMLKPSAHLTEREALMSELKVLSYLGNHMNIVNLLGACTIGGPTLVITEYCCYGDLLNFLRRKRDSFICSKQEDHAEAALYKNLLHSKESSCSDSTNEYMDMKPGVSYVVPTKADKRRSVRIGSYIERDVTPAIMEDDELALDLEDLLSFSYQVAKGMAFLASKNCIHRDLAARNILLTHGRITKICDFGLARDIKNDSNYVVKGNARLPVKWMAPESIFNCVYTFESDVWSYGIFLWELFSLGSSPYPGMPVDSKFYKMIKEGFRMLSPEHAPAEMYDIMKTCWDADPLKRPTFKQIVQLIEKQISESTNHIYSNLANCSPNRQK
T1 sequence (P28482 with tags, fused parts or gaps): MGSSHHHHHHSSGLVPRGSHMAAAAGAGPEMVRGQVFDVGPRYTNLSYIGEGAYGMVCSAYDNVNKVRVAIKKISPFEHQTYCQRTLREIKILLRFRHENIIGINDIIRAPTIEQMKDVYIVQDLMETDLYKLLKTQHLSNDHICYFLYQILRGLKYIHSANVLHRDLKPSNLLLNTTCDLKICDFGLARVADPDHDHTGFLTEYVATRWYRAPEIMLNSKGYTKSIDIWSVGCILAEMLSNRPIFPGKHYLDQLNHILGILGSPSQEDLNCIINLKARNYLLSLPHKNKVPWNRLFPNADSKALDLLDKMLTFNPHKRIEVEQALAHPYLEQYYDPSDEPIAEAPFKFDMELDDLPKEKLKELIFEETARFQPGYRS
T11 sequence (P08581 with tags, fused parts or gaps): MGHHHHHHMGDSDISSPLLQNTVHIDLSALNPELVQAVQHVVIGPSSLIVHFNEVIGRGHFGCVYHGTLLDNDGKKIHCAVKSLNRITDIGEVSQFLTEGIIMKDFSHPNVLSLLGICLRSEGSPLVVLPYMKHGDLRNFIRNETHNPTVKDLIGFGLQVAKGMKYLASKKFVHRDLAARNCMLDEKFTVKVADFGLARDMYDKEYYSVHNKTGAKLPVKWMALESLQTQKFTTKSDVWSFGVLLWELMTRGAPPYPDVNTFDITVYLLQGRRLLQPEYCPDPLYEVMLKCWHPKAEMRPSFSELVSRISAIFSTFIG
T6 sequence (P15056 whole entry): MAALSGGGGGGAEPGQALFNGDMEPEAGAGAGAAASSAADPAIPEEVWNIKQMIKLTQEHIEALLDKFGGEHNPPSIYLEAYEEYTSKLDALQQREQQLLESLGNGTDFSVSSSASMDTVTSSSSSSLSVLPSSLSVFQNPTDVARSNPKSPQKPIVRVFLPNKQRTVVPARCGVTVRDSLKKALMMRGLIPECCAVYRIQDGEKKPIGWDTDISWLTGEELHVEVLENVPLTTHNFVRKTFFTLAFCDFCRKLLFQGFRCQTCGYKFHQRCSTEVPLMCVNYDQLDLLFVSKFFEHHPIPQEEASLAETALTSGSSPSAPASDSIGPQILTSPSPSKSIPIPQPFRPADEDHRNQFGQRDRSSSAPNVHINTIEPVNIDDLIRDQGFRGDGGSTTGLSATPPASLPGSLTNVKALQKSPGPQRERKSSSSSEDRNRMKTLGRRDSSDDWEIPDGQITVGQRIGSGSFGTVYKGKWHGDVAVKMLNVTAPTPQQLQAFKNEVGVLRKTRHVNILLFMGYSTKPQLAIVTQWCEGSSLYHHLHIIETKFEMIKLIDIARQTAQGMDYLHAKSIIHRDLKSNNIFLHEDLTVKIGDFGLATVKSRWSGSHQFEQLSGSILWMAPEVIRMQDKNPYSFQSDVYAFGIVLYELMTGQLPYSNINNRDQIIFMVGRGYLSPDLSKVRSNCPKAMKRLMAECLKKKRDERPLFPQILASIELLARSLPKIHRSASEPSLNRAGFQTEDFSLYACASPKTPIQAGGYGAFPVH
T9 sequence (P53779 whole entry): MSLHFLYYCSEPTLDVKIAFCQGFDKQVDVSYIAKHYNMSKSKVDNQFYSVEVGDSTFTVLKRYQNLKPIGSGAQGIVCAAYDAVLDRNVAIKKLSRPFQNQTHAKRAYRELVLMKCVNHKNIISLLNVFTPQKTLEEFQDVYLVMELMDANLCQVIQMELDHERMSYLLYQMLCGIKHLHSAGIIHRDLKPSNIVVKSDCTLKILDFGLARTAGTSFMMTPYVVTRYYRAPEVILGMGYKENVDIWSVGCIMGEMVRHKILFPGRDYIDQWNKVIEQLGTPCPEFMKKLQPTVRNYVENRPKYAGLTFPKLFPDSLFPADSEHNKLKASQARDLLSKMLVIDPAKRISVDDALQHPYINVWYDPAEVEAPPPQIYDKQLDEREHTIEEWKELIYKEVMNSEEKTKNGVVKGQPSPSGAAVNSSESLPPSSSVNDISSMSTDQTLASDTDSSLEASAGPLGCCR

| IC50 (Erk2) [µM] | IC50 (Ret) [µM] | IC50 (Flt1) [µM] | IC50 (Pyk2) [µM] | IC50 (Abl) [µM] | IC50 (B-Raf) [µM] | IC50 (Src) [µM] | IC50 (Kdr) [µM] | IC50 (Jnk3) [µM] | IC50 (Zap70) [µM] | IC50 (Met) [µM] | IC50 (Kit) [µM] | IC50 (Flt4) [µM] | IC50 (FGFR1) [µM] | IC50 (B-Raf V600E) [µM] | IC50 (Fak) [µM] | SMILES |
| --- | --- | --- | --- | --- | --- | --- | --- | --- | --- | --- | --- | --- | --- | --- | --- | --- |
| ≤ 10 | ≤ 10 | ≤ 10 | ≤ 10 | ≤ 10 | ≤ 10 | ≤ 10 | ≤ 10 | ≤ 10 | ≤ 10 | ≤ 10 | ≤ 10 | ≤ 10 | ≤ 10 | ≤ 10 | – | O=S(=O)(NCc1c[nH]c2ncccc12)c1cc(Cl)c(Cl)s1 [Compound P-0550] |
| ≤ 10 | ≤ 10 | – | ≤ 10 | ≤ 10 | – | – | ≤ 10 | – | ≤ 10 | – | ≤ 10 | – | ≤ 10 | – | ≤ 10 | O=S(=O)(NCc1c[nH]c2ncccc12)c1ccc(N2CCOCC2)nc1 [Compound P-0611] |
